Experimental data as given in patent US20230024283A1, “HERBICIDAL COMPOUNDS” (SYNGENTA CROP PROTECTION AG, priority 2020, published 2023).

What was measured:
Assay in all cases: Post-emergence herbicidal glasshouse test
Format in all cases: in vivo
Conditions in all cases: post-emergence spray, evaluated after 13 days, five-point scale
[1] = tested on: Amaranthus retoflexus (AMARE)
Description: (§1) Seeds of a variety of test species are sown in standard soil in pots (Ipomoea hederacea (IPOHE), Abutilon theophrasti (ABUTH), Amaranthus retoflexus (AMARE), Echinochloa crus-galli (ECHCG), Setaria faberi (SETFA)). After 8 days cultivation under controlled conditions in a glasshouse (at 24/16° C., day/night; 14 hours light; 65% humidity), the plants are sprayed with an aqueous spray solution derived from the formulation of the technical active ingredient in acetone / water (50:50) solution containing 0.5% Tween 20 (polyoxyethelyene sorbitan monolaurate, CAS RN 9005-64-5). Compounds are applied at 1000 g/ha unless otherwise stated. The test plants are then grown in a glasshouse under controlled conditions in a glasshouse (at 24/16° C., day/night; 14 hours light; 65% humidity) and watered twice daily. After 13 days the test is evaluated for the percentage damage caused to the plant. The biological activities are shown in the following table on a five-point scale (5=81-100%; 4=61-80%; 3=41-60%; 2=21-40%; 1=0-20%).

[2] = tested on: Abutilon theophrasti (ABUTH)
Description: as §1

Setaria faberi (SETFA) = tested on: Setaria faberi (SETFA)
Description: as §1

[3] = tested on: Ipomoea hederacea (IPOHE)
Description: as §1

[4] = tested on: Echinochloa crus-galli (ECHCG)
Description: as §1

Structure (SMILES): N#Cc1cc(-n2cc(Cl)c(C3CC3)n2)c(O)c(C(F)(F)F)c1 [Compound 1.259]
- percentage damage caused to the plant, AMARE ([1]; 1000 g/ha): 5 (5=81-100%)
- percentage damage caused to the plant, ABUTH ([2]; 1000 g/ha): 3 (3=41-60%)
- percentage damage caused to the plant, SETFA (Setaria faberi (SETFA); 1000 g/ha): 2 (2=21-40%)
- percentage damage caused to the plant, IPOHE ([3]; 1000 g/ha): 5 (5=81-100%)
- percentage damage caused to the plant, ECHCG ([4]; 1000 g/ha): 2 (2=21-40%)

Structure (SMILES): N#Cc1cc(Br)c(O)c(-c2cncnc2)c1 [Compound 1.044]
- percentage damage caused to the plant, AMARE ([1]; 1000 g/ha): 5 (5=81-100%)
- percentage damage caused to the plant, ABUTH ([2]; 1000 g/ha): 5 (5=81-100%)
- percentage damage caused to the plant, SETFA (Setaria faberi (SETFA); 1000 g/ha): 3 (3=41-60%)
- percentage damage caused to the plant, IPOHE ([3]; 1000 g/ha): 1 (1=0-20%)
- percentage damage caused to the plant, ECHCG ([4]; 1000 g/ha): 2 (2=21-40%)

Structure (SMILES): N#Cc1cc(Br)c(O)c(-c2cccc(Br)c2)c1 [Compound 1.061]
- percentage damage caused to the plant, AMARE ([1]; 1000 g/ha): 5 (5=81-100%)
- percentage damage caused to the plant, ABUTH ([2]; 1000 g/ha): 3 (3=41-60%)
- percentage damage caused to the plant, SETFA (Setaria faberi (SETFA); 1000 g/ha): 1 (1=0-20%)
- percentage damage caused to the plant, IPOHE ([3]; 1000 g/ha): 3 (3=41-60%)
- percentage damage caused to the plant, ECHCG ([4]; 1000 g/ha): 1 (1=0-20%)

Structure (SMILES): N#Cc1cc(Br)c(O)c(-c2cccc(Cl)c2F)c1 [Compound 1.045]
- percentage damage caused to the plant, AMARE ([1]; 1000 g/ha): 5 (5=81-100%)
- percentage damage caused to the plant, ABUTH ([2]; 1000 g/ha): 3 (3=41-60%)
- percentage damage caused to the plant, SETFA (Setaria faberi (SETFA); 1000 g/ha): 1 (1=0-20%)
- percentage damage caused to the plant, IPOHE ([3]; 1000 g/ha): 1 (1=0-20%)
- percentage damage caused to the plant, ECHCG ([4]; 1000 g/ha): 1 (1=0-20%)

Structure (SMILES): N#Cc1cc(Br)c(O)c(-c2ccccc2)c1 [Compound 1.047]
- percentage damage caused to the plant, AMARE ([1]; 1000 g/ha): 5 (5=81-100%)
- percentage damage caused to the plant, ABUTH ([2]; 1000 g/ha): 5 (5=81-100%)
- percentage damage caused to the plant, SETFA (Setaria faberi (SETFA); 1000 g/ha): 2 (2=21-40%)
- percentage damage caused to the plant, IPOHE ([3]; 1000 g/ha): 3 (3=41-60%)
- percentage damage caused to the plant, ECHCG ([4]; 1000 g/ha): 1 (1=0-20%)

Structure (SMILES): N#Cc1cc(Cl)c(O)c(-c2cccc(F)c2)c1 [Compound 1.004]
- percentage damage caused to the plant, AMARE ([1]; 1000 g/ha): 5 (5=81-100%)
- percentage damage caused to the plant, ABUTH ([2]; 1000 g/ha): 5 (5=81-100%)
- percentage damage caused to the plant, SETFA (Setaria faberi (SETFA); 1000 g/ha): 3 (3=41-60%)
- percentage damage caused to the plant, IPOHE ([3]; 1000 g/ha): 1 (1=0-20%)
- percentage damage caused to the plant, ECHCG ([4]; 1000 g/ha): 3 (3=41-60%)

Structure (SMILES): Cc1cc(F)cc(-c2cc(C#N)cc(C(F)(F)F)c2O)c1 [Compound 1.162]
- percentage damage caused to the plant, AMARE ([1]; 1000 g/ha): 2 (2=21-40%)
- percentage damage caused to the plant, ABUTH ([2]; 1000 g/ha): 1 (1=0-20%)
- percentage damage caused to the plant, SETFA (Setaria faberi (SETFA); 1000 g/ha): 1 (1=0-20%)
- percentage damage caused to the plant, IPOHE ([3]; 1000 g/ha): 3 (3=41-60%)
- percentage damage caused to the plant, ECHCG ([4]; 1000 g/ha): 1 (1=0-20%)

Structure (SMILES): N#Cc1cc(-c2cc(F)cc(Cl)c2)c(O)c(C(F)(F)F)c1 [Compound 1.148]
- percentage damage caused to the plant, AMARE ([1]; applied at 500 gai/ha): 3 (3=41-60%)
- percentage damage caused to the plant, ABUTH ([2]; applied at 500 gai/ha): 1 (1=0-20%)
- percentage damage caused to the plant, SETFA (Setaria faberi (SETFA); applied at 500 gai/ha): 1 (1=0-20%)
- percentage damage caused to the plant, IPOHE ([3]; applied at 500 gai/ha): 4 (4=61-80%)
- percentage damage caused to the plant, ECHCG ([4]; applied at 500 gai/ha): 1 (1=0-20%)

Structure (SMILES): N#Cc1cc(Br)c(O)c(-c2ccsc2)c1 [Compound 1.135]
- percentage damage caused to the plant, AMARE ([1]; 1000 g/ha): 2 (2=21-40%)
- percentage damage caused to the plant, ABUTH ([2]; 1000 g/ha): 5 (5=81-100%)
- percentage damage caused to the plant, SETFA (Setaria faberi (SETFA); 1000 g/ha): 1 (1=0-20%)
- percentage damage caused to the plant, IPOHE ([3]; 1000 g/ha): 5 (5=81-100%)
- percentage damage caused to the plant, ECHCG ([4]; 1000 g/ha): 1 (1=0-20%)

Structure (SMILES): N#Cc1cc(Br)c(O)c(-c2ccc(C(F)(F)F)cc2)c1 [Compound 1.058]
- percentage damage caused to the plant, AMARE ([1]; 1000 g/ha): 5 (5=81-100%)
- percentage damage caused to the plant, ABUTH ([2]; 1000 g/ha): 1 (1=0-20%)
- percentage damage caused to the plant, SETFA (Setaria faberi (SETFA); 1000 g/ha): 3 (3=41-60%)
- percentage damage caused to the plant, IPOHE ([3]; 1000 g/ha): 2 (2=21-40%)
- percentage damage caused to the plant, ECHCG ([4]; 1000 g/ha): 2 (2=21-40%)

Structure (SMILES): N#Cc1cc(-c2cccc(OC(F)(F)F)c2)c(O)c(C(F)(F)F)c1 [Compound 1.165]
- percentage damage caused to the plant, AMARE ([1]; 1000 g/ha): 3 (3=41-60%)
- percentage damage caused to the plant, ABUTH ([2]; 1000 g/ha): 1 (1=0-20%)
- percentage damage caused to the plant, SETFA (Setaria faberi (SETFA); 1000 g/ha): 1 (1=0-20%)
- percentage damage caused to the plant, IPOHE ([3]; 1000 g/ha): 4 (4=61-80%)
- percentage damage caused to the plant, ECHCG ([4]; 1000 g/ha): 1 (1=0-20%)

Structure (SMILES): N#Cc1cc(Br)c(O)c(-c2cccc(Cl)c2)c1 [Compound 1.054]
- percentage damage caused to the plant, AMARE ([1]; 1000 g/ha): 5 (5=81-100%)
- percentage damage caused to the plant, ABUTH ([2]; 1000 g/ha): 5 (5=81-100%)
- percentage damage caused to the plant, SETFA (Setaria faberi (SETFA); 1000 g/ha): 2 (2=21-40%)
- percentage damage caused to the plant, IPOHE ([3]; 1000 g/ha): 2 (2=21-40%)
- percentage damage caused to the plant, ECHCG ([4]; 1000 g/ha): 3 (3=41-60%)

Structure (SMILES): CC(C)C(=O)Oc1c(Cl)cc(C#N)cc1-c1cccc(F)c1 [Compound 2.006]
- percentage damage caused to the plant, AMARE ([1]; 1000 g/ha): 3 (3=41-60%)
- percentage damage caused to the plant, ABUTH ([2]; 1000 g/ha): 4 (4=61-80%)
- percentage damage caused to the plant, SETFA (Setaria faberi (SETFA); 1000 g/ha): 1 (1=0-20%)
- percentage damage caused to the plant, IPOHE ([3]; 1000 g/ha): 1 (1=0-20%)
- percentage damage caused to the plant, ECHCG ([4]; 1000 g/ha): 1 (1=0-20%)

Structure (SMILES): N#Cc1cc(-n2cc(Cl)c(C(F)F)n2)c(O)c(C(F)(F)F)c1 [Compound 1.250]
- percentage damage caused to the plant, AMARE ([1]; 1000 g/ha): 5 (5=81-100%)
- percentage damage caused to the plant, ABUTH ([2]; 1000 g/ha): 2 (2=21-40%)
- percentage damage caused to the plant, SETFA (Setaria faberi (SETFA); 1000 g/ha): 2 (2=21-40%)
- percentage damage caused to the plant, IPOHE ([3]; 1000 g/ha): 5 (5=81-100%)
- percentage damage caused to the plant, ECHCG ([4]; 1000 g/ha): 2 (2=21-40%)

Structure (SMILES): N#Cc1cc(-n2cc(C(F)(F)F)cn2)c(O)c(C(F)(F)F)c1 [Compound 1.190]
- percentage damage caused to the plant, AMARE ([1]; 1000 g/ha): 3 (3=41-60%)
- percentage damage caused to the plant, ABUTH ([2]; 1000 g/ha): 1 (1=0-20%)
- percentage damage caused to the plant, SETFA (Setaria faberi (SETFA); 1000 g/ha): 1 (1=0-20%)
- percentage damage caused to the plant, IPOHE ([3]; 1000 g/ha): 1 (1=0-20%)
- percentage damage caused to the plant, ECHCG ([4]; 1000 g/ha): 1 (1=0-20%)

Structure (SMILES): N#Cc1cccc(-c2cc(C#N)cc(Br)c2O)c1 [Compound 1.053]
- percentage damage caused to the plant, AMARE ([1]; 1000 g/ha): 5 (5=81-100%)
- percentage damage caused to the plant, ABUTH ([2]; 1000 g/ha): 2 (2=21-40%)
- percentage damage caused to the plant, SETFA (Setaria faberi (SETFA); 1000 g/ha): 1 (1=0-20%)
- percentage damage caused to the plant, IPOHE ([3]; 1000 g/ha): 3 (3=41-60%)
- percentage damage caused to the plant, ECHCG ([4]; 1000 g/ha): 1 (1=0-20%)

Structure (SMILES): N#Cc1cc(Br)c(O)c(-c2cncc(F)c2)c1 [Compound 1.052]
- percentage damage caused to the plant, AMARE ([1]; 1000 g/ha): 5 (5=81-100%)
- percentage damage caused to the plant, ABUTH ([2]; 1000 g/ha): 5 (5=81-100%)
- percentage damage caused to the plant, SETFA (Setaria faberi (SETFA); 1000 g/ha): 3 (3=41-60%)
- percentage damage caused to the plant, IPOHE ([3]; 1000 g/ha): 1 (1=0-20%)
- percentage damage caused to the plant, ECHCG ([4]; 1000 g/ha): 1 (1=0-20%)
